# Columns and labels:
# [1] = Stability in water; assay type: physicochemical
# Description: 3-(trimethoxysilyl) propyldimethyloctadecyl ammonium chloride (hereinafter also referred to as “Trimethoxy”) 104, is illustrated in FIG. 2 only as a precursor to the Trihydroxy molecule, when hydrolyzed by addition to water, shown in FIG. 1. […] Conventional methods of use of Trimethoxy 104 includes addition of a dilute solution in methanol to water. The EPA label required for Trimethoxy compounds states: “Danger. Corrosive. Causes irreversible eye damage and skin burns. Methanol may cause blindness. May be fatal if inhaled. May be harmful if swallowed or absorbed through the skin.”
# The compound must then be used within a short period of time, such as a few hours to at most 12 hours, to treat a surface or fabric to produce a permanent surface coating.
# [2] = test system: mixed bacterial/fungal infectious otitis externa and infectious dermatitis; experiment: Example 1: treatment of otitis externa and dermatitis in a Shih Tzu dog; assay type: in vivo; details: oral, four weeks, before treatment with the composition
# Description: Conner's chest, neck, paws, and face were cleaned and treated twice daily with antimicrobial wipes (Douxo Chlorhexiding pads®) and an antimicrobial lotion (ResiKetoChlor®). The ears were cleaned once daily with a tris-EDTA/ketoconazole solution (TrizUltra plus Keto®) and treated twice daily with an amikacin otic preparation.
# The animal had generalized mixed hypotrichosis/alopecia, erythema, hyperpigmentation, and lichenification with crusting over dorsal trunk, legs, paws, and ventrum. Hair on the face and neck was severely matted. The skin underlying the mats was crusted, with moist dermatitis and brown purulent exudate. Lymph node enlargement was palpated in the mandibular, prescapular, and popliteal node groups.
# A generalized severe Malassezia (yeast) dermatitis was concentrated mostly on ventrum and paws. […] Fine-needle aspirates of peripheral lymph nodes (left prescapular and left popliteal) were consistent with reactive lymphadenopathy.
# The otitis externa was treated initially by cleaning the ears with a salicylic acid based ear cleaner (Otoclean®) and instillation of 0.5 ml of the disclosed composition comprising Trihydroxy in each ear. Mats were removed and the dog was bathed and groomed over two days using (Splash plus® shampoo), followed by antimicrobial shampoo (Douxo Chlorhexidine® shampoo), followed by essential fatty acid cream rinse (Hylyt® cream rinse). […]
Compound,stability in water [1],outcome of earlier conventional therapy [2]
"CCCCCCCCCCCCCCCCCC[N+](C)(C)CCC[Si](O)(O)O.[Cl-] [Trihydroxy, 3-(trihydroxysilyl) propyldimethyloctadecyl ammonium chloride]",stable with no other additives in water,
"CCCCCCCCCCCCCCCCCC[N+](C)(C)CCC[Si](OC)(OC)OC.[Cl-] [Trimethoxy, 3-(trimethoxysilyl) propyldimethyloctadecyl ammonium chloride]",unstable in water,
OC(Cn1cncn1)(Cn1cncn1)c1ccc(F)cc1F [fluconazole],,failed
amoxicillin/clavulanate,,failed

# Source: patent US20170042916A1, “ANIMAL TISSUE COLONIZATION AND TREATMENT OF INFECTION” (priority 2014, published 2017)
